Laboratory results: patent US20180099931A1 (AbbVie S.à.r.l., priority 2016, published 2018)
Where two headings read alike, the source gives them in different places.

Target: T1, F508delCFTR (Homo sapiens, UniProt P13569, DEL508-508)
T1 construct: expressed in transfected cells; host or cells: CFBE41o- human lung-derived epithelial cells (CFBE4lo-F508delCFTR-HRP), doxycycline-inducible
Assay: Cell Surface Expression-Horse Radish Peroxidase (CSE-HRP) Assay;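 as to Maximum % activity (with co-corrector): co-corrector and positive control are both the same reference corrector at 2 µM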;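 as to Maximum % activity (without co-corrector): percent of the 2 µM on-plate positive control corrector response above DMSO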
Format: cell-based
Details: for Maximum % activity (with co-corrector) / Emax: maximum at any tested concentration, normalized to on-plate positive control; for Emax: read-out: Maximum % activity (without co-corrector)
Description: Cell Surface Expression-Horse Radish Peroxidase (CSE-HRP) Assay;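 as to Maximum % activity (with co-corrector): co-corrector and positive control are both the same reference corrector at 2 µM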;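 as to Maximum % activity (without co-corrector): percent of the 2 µM on-plate positive control corrector response above DMSO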
The development was achieved by expressing the F508delCFTR mutation along with a horseradish peroxidase (HRP) in the fourth exofacial loop, and then measuring the HRP activity using luminescence readout from these cells, CFBE4lo-F508delCFTR-HRP, that were incubated overnight with the test corrector compounds, either without or with the co-corrector. […] The test compounds were then added either without or with a co-corrector at the required concentrations and further incubated for 18-24 hours at 33° C. The highest concentration tested was 20 μM with an 8-point concentration response curve using a 3-fold dilution in both the test compound without or with the co-corrector. Three replicate plates were run to determine one EC50. All plates contained negative controls (dimethyl sulfoxide, DMSO) and positive control (2 μM of 3-[(2R,4R)-4-({[1-(2,2-difluoro-1,3-benzodioxol-5-yl)cyclopropyl]carbonyl}amino)-7-methoxy-3,4-dihydro-2H-chromen-2-yl]benzoic acid) as well as on-plate concentration response of the positive control. […] The raw counts from the experiment were analyzed using Accelrys® Assay Explorer v3.3.
1−[3*SDPositive Control+3*SDNegative Control/Absolute(MeanPositive Control−MeanNegative Control)]
wherein “SD” is standard deviation.
The % activity measured at each of the 8 test concentrations of the test compound added either without or with a co-corrector (2 μM of 3-[(2R,4R)-4-({[1-(2,2-difluoro-1,3-benzodioxol-5-yl)cyclopropyl]carbonyl}amino)-7-methoxy-3,4-dihydro-2H-chromen-2-yl]benzoic acid) was normalized to the on-plate positive control using the following formulae:
% activity(Test compound without co-corrector)=[(test compound without co-corrector response−DMSO response)/(positive control response−DMSO response)]*100
% activity(Test compound with co-corrector)=[(test compound with co-corrector response−DMSO response)/(positive control response−DMSO response)]*100
The maximum % activity achieved for the test compound either without or with a co-corrector at any tested concentration is presented in Table 4 along with the respective EC50's calculated using the following general sigmoidal curve with variable Hill slope equation (described as Model 42 in the Accelrys® Assay Explorer v3.3 software):
General sigmoidal curve with concentration, response, top, bottom, EC50 and Hill slope. This model describes a sigmoidal curve with an adjustable baseline, a. The equation can be used to fit curves where response is either increasing or decreasing with respect to the independent variable, “x”.
“x” is a concentration of drug under test. “y” is the response. “a” is the maximum response, and “d” is the minimum response “c” is the inflection point (EC50) for the curve. That is, “y” is halfway between the lower and upper asymptotes when x=c. “b” is the slope-factor or Hill coefficient. The sign of b is positive when the response increases with increasing dose and is negative when the response decreases with increasing dose (inhibition).

[1] = CSE-HRP, test compound without co-corrector, read-out: EC50 (without co-corrector)
[2] = CSE-HRP, with co-corrector (2 μM of 3-[(2R,4R)-4-({[1-(2,2-difluoro-1,3-benzodioxol-5-yl)cyclopropyl]carbonyl}amino)-7-methoxy-3,4-dihydro-2H-chromen-2-yl]benzoic acid), read-out: EC50 (with co-corrector)
[3] = CSE-HRP, with co-corrector (2 μM)
[4] = test compound without co-corrector, read-out: EC50 (without co-corrector)
[5] = with co-corrector (2 μM of 3-[(2R,4R)-4-({[1-(2,2-difluoro-1,3-benzodioxol-5-yl)cyclopropyl]carbonyl}amino)-7-methoxy-3,4-dihydro-2H-chromen-2-yl]benzoic acid), read-out: EC50 (with co-corrector)
[6] = test compound without co-corrector
[7] = with co-corrector (2 μM of 3-[(2R,4R)-4-({[1-(2,2-difluoro-1,3-benzodioxol-5-yl)cyclopropyl]carbonyl}amino)-7-methoxy-3,4-dihydro-2H-chromen-2-yl]benzoic acid)

T1 sequence (P13569 with tags, fused parts or gaps DEL508-508): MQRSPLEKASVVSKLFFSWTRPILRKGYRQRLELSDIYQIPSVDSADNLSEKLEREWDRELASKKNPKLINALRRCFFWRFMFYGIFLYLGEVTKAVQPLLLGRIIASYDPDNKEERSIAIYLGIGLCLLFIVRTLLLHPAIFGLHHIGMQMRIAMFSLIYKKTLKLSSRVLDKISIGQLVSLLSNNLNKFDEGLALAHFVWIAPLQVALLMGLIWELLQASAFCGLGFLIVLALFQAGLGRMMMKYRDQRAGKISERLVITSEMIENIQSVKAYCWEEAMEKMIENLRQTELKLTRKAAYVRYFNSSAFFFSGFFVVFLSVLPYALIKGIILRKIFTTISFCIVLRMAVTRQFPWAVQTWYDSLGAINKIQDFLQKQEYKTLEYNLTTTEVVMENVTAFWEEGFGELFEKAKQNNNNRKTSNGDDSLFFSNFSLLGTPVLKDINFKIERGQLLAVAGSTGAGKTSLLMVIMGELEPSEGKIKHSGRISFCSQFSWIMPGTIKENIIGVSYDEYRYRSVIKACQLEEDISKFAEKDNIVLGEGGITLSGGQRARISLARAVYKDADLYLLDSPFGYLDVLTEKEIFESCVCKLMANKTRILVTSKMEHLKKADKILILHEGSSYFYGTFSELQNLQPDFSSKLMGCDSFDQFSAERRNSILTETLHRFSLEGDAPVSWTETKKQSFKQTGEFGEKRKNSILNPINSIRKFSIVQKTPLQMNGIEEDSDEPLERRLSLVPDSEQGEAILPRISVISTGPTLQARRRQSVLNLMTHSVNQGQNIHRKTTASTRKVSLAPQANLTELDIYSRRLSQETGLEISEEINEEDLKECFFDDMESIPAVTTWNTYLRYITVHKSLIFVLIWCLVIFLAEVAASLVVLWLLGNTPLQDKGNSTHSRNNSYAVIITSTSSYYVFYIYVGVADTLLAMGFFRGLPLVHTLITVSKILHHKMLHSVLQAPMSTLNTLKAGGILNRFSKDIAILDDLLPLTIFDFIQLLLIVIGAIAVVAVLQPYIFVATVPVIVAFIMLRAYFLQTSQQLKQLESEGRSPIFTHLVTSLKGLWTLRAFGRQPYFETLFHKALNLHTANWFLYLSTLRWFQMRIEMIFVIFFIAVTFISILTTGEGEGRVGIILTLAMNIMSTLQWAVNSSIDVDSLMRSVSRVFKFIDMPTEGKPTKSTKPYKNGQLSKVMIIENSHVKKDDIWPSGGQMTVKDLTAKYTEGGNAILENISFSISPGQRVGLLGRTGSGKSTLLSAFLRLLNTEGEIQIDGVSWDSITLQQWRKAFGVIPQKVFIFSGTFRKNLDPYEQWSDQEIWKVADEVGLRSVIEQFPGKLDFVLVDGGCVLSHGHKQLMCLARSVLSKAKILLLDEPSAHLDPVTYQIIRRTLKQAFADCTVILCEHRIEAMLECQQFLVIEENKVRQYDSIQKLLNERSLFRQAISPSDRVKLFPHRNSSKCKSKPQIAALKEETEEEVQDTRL

SMILES | EC50 [1] | EC50 [2] | Maximum % activity (with co-corrector) [3] | Emax (CSE-HRP, without co-corrector) | EC50 [4] | EC50 [5] | Maximum % activity (with co-corrector) (with co-corrector (2 μM)) | Emax (without co-corrector) | Emax [6] | Maximum % activity (with co-corrector) [7]
COc1ncc(C(F)(F)F)cc1CN[C@H]1[C@H](C(C)(C)C)[C@@H](C(=O)O)N(C(=O)C23CC(C2)C3)[C@H]1c1ccccc1C(C)C [Example I-272] | 1000 to 10000 nM | < 1000 nM | +++ (≥350) | 100 to 200% |  |  |  |  |  | 
COc1ccc(C(C)(C)C)cc1CN[C@H]1[C@H](C(C)(C)C)[C@@H](C(=O)O)N(S(=O)(=O)c2ccccc2)[C@H]1c1ccccc1 [Example 15, (2S,3S,4S,5S)-1-(benzenesulfonyl)-3-tert-butyl-4-{[(5-tert-butyl-2-methoxyphenyl)methyl]amino}-5-phenylpyrrolidine-2-carboxylic acid] |  |  |  |  | 1000 to 10000 nM | 1000 to 10000 nM | +++ (≥350) | 100 to 200% |  | 
COc1cccc(S(=O)(=O)N2[C@H](C(=O)O)[C@@H](C(C)(C)C)[C@H](NCc3cc(C4CCC4)cnc3OC)[C@@H]2c2ccccc2C(C)C)n1 [Example I-303] | 1000 to 10000 nM | 1000 to 10000 nM | +++ (≥350) | < 100% |  |  |  |  |  | 
COc1ccc(C(C)(C)C)cc1CN[C@H]1[C@H](C(C)(C)C)[C@@H](C(=O)O)N(C(=O)[C@@H]2CCCO2)[C@H]1c1ccccc1C1CC1 [Example 108, (2S,3S,4S,5S)-3-tert-butyl-4-{[(5-tert-butyl-2-methoxyphenyl)methyl]amino}-5-(2-cyclopropylphenyl)-1-[(2S)-oxolane-2-carbonyl]pyrrolidine-2-carboxylic acid] |  |  |  |  | 1000 to 10000 nM | 1000 to 10000 nM | +++ (≥350) | > 200% |  | 
COc1ccc(S(C)(=O)=O)cc1CN[C@@H]1[C@@H](C(C)(C)C)[C@H](C(=O)O)N(C(=O)C2CCCCC2)[C@@H]1c1ccccc1 (racemic) [Example I-30] |  |  |  |  | > 10000 nM | > 10000 nM | + (<150) | < 100% |  | 
COc1ccc(C(C)(C)C)cc1CN[C@H]1[C@H](C(C)(C)C)[C@@H](C(=O)O)N(C(=O)[C@H]2CCCC(F)(F)C2)[C@H]1c1ccccc1 [Example 30, (2S,3S,4S,5S)-3-tert-butyl-4-{[(5-tert-butyl-2-methoxyphenyl)methyl]amino}-1-[(1S)-3,3-difluorocyclohexane-1-carbonyl]-5-phenylpyrrolidine-2-carboxylic acid] |  |  |  |  | 1000 to 10000 nM | 1000 to 10000 nM | +++ (≥350) | > 200% |  | 
COc1ncc(C2CCC2)cc1CN[C@H]1[C@H](C(C)(C)C)[C@@H](C(=O)O)N(C(=O)[C@@H]2CCCC(F)(F)C2)[C@H]1c1ccccc1 [Example 69, (2S,3S,4S,5S)-3-tert-butyl-4-{[(5-cyclobutyl-2-methoxypyridin-3-yl)methyl]amino}-1-[(1R)-3,3-difluorocyclohexane-1-carbonyl]-5-phenylpyrrolidine-2-carboxylic acid] |  |  |  |  | < 1000 nM | < 1000 nM | +++ (≥350) | > 200% |  | 
COc1ccc(-c2cncnc2)cc1CN[C@H]1[C@H](C(C)(C)C)[C@@H](C(=O)O)N(C(=O)C2CCCCC2)[C@H]1c1ccccc1 [Example I-114] |  |  |  |  | 1000 to 10000 nM | 1000 to 10000 nM | ++ (≥150 and <350) | < 100% |  | 
COc1cc(C(F)(F)F)ccc1CN[C@H]1[C@H](C(C)(C)C)[C@@H](C(=O)O)N(C(=O)OC(C)C)[C@H]1c1cccnc1OC(C)C [Example 81, (2S,3S,4S,5S)-3-tert-butyl-4-({[2-methoxy-4-(trifluoromethyl)phenyl]methyl}amino)-1-{[(propan-2-yl)oxy]carbonyl}-5-{2-[(propan-2-yl)oxy]pyridin-3-yl}pyrrolidine-2-carboxylic acid] |  |  |  |  | 1000 to 10000 nM | 1000 to 10000 nM | +++ (≥350) | 100 to 200% |  | 
COc1ccc(C(C)(C)C)cc1CN[C@H]1[C@H](C(C)(C)C)[C@@H](C(=O)O)N(C(=O)[C@H](C)[C@H]2CCCCO2)[C@H]1c1ccccc1 (relative stereo) [Example I-196] |  |  |  |  | 1000 to 10000 nM | 1000 to 10000 nM | +++ (≥350) | > 200% |  | 
COc1ncc(-c2ccccc2F)cc1CN[C@H]1[C@H](C(C)(C)C)[C@@H](C(=O)O)N(C(=O)C2CCCCC2)[C@H]1c1ccccc1 [Example I-140] |  |  |  |  | < 1000 nM | < 1000 nM | +++ (≥350) | > 200% |  | 
COc1ccc(C(C)(C)C)cc1CN[C@H]1[C@H](C(C)(C)C)[C@@H](C(=O)O)N(C(=O)C2CCCCC2)[C@H]1c1ccc(F)cc1 [Example I-112] |  |  |  |  | < 1000 nM | < 1000 nM | +++ (≥350) | > 200% |  | 

Continued, values first:

EC50 [1] | EC50 [2] | Maximum % activity (with co-corrector) [3] | Emax (CSE-HRP, without co-corrector) | EC50 [4] | EC50 [5] | Maximum % activity (with co-corrector) (with co-corrector (2 μM)) | Emax (without co-corrector) | Emax [6] | Maximum % activity (with co-corrector) [7] | SMILES
 |  |  |  | > 10000 nM | 1000 to 10000 nM |  |  | < 100% | ++ (≥150 and <350) | CC(C)(C)[C@@H]1[C@@H](NCc2cc(C(F)(F)F)cnc2OCCO)[C@@H](c2ccccc2)N(C(=O)C2CCCCC2)[C@H]1C(=O)O (racemic) [III-87]
1000 to 10000 nM | < 1000 nM | +++ (≥350) | > 200% |  |  |  |  |  |  | COc1ccc(C(C)(C)C)cc1CN[C@H]1[C@H](C(C)(C)C)[C@@H](C(=O)O)N(C(=O)Cc2cccc(F)c2F)[C@H]1c1ccccc1 [II-233]
1000 to 10000 nM | 1000 to 10000 nM | +++ (≥350) | 100 to 200% |  |  |  |  |  |  | CCOc1ccc(Br)cc1CN[C@H]1[C@H](C(C)(C)C)[C@@H](C(=O)O)N(C(=O)C2CCCCC2)[C@H]1c1ccccc1 [II-126]
1000 to 10000 nM | 1000 to 10000 nM | +++ (≥350) | > 200% |  |  |  |  |  |  | COc1ccc(C(C)(C)C)cc1CN[C@H]1[C@H](C(C)(C)C)[C@@H](C(=O)O)N(C(=O)Cc2ccc(O)cc2)[C@H]1c1ccccc1 [II-195]
1000 to 10000 nM | 1000 to 10000 nM | +++ (≥350) | 100 to 200% |  |  |  |  |  |  | COc1cc(C(F)(F)F)ccc1CN[C@H]1[C@H](C(C)(C)C)[C@@H](C(=O)O)N(C(=O)C2CCCO2)[C@H]1c1ccccc1 (mixture of isomers) [II-60]
 |  |  |  | < 1000 nM | < 1000 nM |  |  | 100 to 200% | +++ (≥350) | COc1ccc(C(C)(C)C)cc1CN[C@H]1[C@H](C(C)(C)C)[C@@H](C(=O)O)N(C(=O)[C@@H]2[C@@H](C(F)(F)F)[C@@H]3CC[C@H]2O3)[C@H]1c1ccccc1OC(F)F (relative stereo) [II-507]
1000 to 10000 nM | 1000 to 10000 nM | +++ (≥350) | > 200% |  |  |  |  |  |  | COc1ccc(-c2ccco2)cc1CN[C@H]1[C@H](C(C)(C)C)[C@@H](C(=O)O)N(C(=O)C2CCCCC2)[C@H]1c1ccccc1 [II-291]
 |  |  |  | < 1000 nM | < 1000 nM |  |  | > 200% | +++ (≥350) | COc1ccc(C(C)(C)C)cc1CN[C@H]1[C@H](C(C)(C)C)[C@@H](C(=O)O)N(C(=O)OCC(C)(C)C)[C@H]1c1ccccc1 [II-392]
1000 to 10000 nM | 1000 to 10000 nM | +++ (≥350) | 100 to 200% |  |  |  |  |  |  | COc1cc(C(C)(C)C)ccc1CN[C@H]1[C@H](C(C)(C)C)[C@@H](C(=O)O)N(C(=O)C2CCCCC2)[C@H]1c1cccnc1OC [II-101]
